Measured values taken from patent US4775684A, “1,3-dioxane ethers” (Imperial Chemical Industries PLC, priority 1985, dated 1988).

Assays:
[1] = target: T1, U46619 stimulated platelet aggregation (Homo sapiens, UniProt P21731); test: blood platelet aggregation test (procedure (b)), U46619 stimulated aggregation of human citrated platelet-rich plasma; format: cell-based; conditions: U46619, averaged over several concentrations
T1 construct: human, citrated platelet-rich plasma; endogenous in cells; host or cells: human platelets in citrated platelet-rich plasma
T1 sequence (P21731 1-343): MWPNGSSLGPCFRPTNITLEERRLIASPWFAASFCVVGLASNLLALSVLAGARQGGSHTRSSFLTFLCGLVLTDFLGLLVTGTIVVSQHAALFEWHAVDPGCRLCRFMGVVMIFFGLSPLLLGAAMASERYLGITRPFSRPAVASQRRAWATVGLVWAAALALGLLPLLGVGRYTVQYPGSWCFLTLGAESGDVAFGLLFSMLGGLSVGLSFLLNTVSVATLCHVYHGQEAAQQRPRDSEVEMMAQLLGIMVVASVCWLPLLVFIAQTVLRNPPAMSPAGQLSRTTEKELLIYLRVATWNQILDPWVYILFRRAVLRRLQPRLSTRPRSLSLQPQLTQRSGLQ
Description: (b) a blood platelet aggregation test based on that described by Born (Nature, 1962, 194, 927-929) and involving:
(i) aggregating human, citrated platelet-rich plasma by addition of the TXA2 mimetic agent U46619 so that a dose-response curve is generated;
(ii) generating a dose-response curve for U46619 stimulated platelet aggregation in the presence of increasing amounts of test compound (generally in the range, 10^-5 M to 10^-10 M); and
(iii) calculating a KB value indicating potency of TXA2 antagonism for the test compound, averaged over several concentrations, from the calculated 50% response value for U46619 aggregation in the presence and absence of test compound; and […]

rat aortal strip = target: T2, rat aortal strip (Rattus norvegicus, UniProt P34978); test: rat aortal strip model (procedure (a)), agonist U46619; format: cell-based; conditions: read-out: pA2 (converted)
T2 construct: rat aortal strip model; from tissue; host or cells: rat aorta strip
T2 sequence (P34978 1-341): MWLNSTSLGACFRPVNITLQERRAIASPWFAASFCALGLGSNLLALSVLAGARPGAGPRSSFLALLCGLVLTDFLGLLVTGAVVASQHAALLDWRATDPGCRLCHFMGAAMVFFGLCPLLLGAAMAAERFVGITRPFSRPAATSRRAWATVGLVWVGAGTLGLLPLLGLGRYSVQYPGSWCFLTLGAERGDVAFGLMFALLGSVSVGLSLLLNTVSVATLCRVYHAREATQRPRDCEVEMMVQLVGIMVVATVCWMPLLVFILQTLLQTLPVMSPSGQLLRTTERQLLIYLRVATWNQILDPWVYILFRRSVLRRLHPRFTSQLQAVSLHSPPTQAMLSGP
Description: As stated earlier, the compounds of formula I are antagonists of one or more of the actions of TXA2, for example certain of its actions on blood platelets, the vasculature and/or the lung.
(a) The rabbit aortal strip model devised by Piper and Vane (Nature, 1969, 223, 29-35) or the rat aortal strip model developed by Kennedy et alia (Prostaglandins, 1982, 24, 667-689), using as agonist the TXA2 mimtic agent known as U46619 (described by R. L. Jones et alia, in "Chemistry, Biochemistry and Pharmacological Activity of Prostanoids" edited by S. M. Roberts and F. Scheinmann, at page 211, Pergamon Press, 1979);

Kb [1]: 17.5 nM
Kb (rat aortal strip): 0.195 nM
Compound: CC(C)(Oc1ccccc1)[C@@H]1OC[C@H](C/C=C\CCC(=O)O)[C@H](c2ccccc2O)O1 (relative stereo) [Example 6, 4(Z)-6-([2,4,5-cis]-2-[1-methyl-1-phenoxyethyl]-4-o-hydroxyphenyl-1,3-dioxan-5-yl)hexenoic acid]
